According to US9629830B2, “EphA4 inhibitors as neuroprotective agents” (The Hong Kong University of Science and Technology, priority 2013, dated 2017):

How the values were obtained:
APP/PS1 mice [1] = assay: Adult neurogenesis (Ki67 staining) in hippocampus of APP/PS1 mice; type: in vivo, mouse; settings: Rhy oral 50 mg/kg for over three months, versus control-treated mice
From the text: The mouse brains were sectioned and stained with Ki67 antibody, which labelled all cells in the cell cycle, but not those differentiated progenitors and newly born neurons.

APP/PS1 mice [2] = assay: Amyloid plaque deposition and microglial activation in APP/PS1 mice (immunohistochemistry); type: in vivo, mouse
Description: For immunohistochemical analysis, mice were anesthetised, transcardially perfused with saline followed by 4% paraformaldehyde (pH 7.4), and the brains were removed^66. After overnight postfixation and a series of cryoprotection, the brains were coronally sectioned at a thickness of 20 μm using a cryostat (Microm HM 560, Thermo Scientific). The sections were stained with β-amyloid (1:200) and Iba1 (1:500) antibodies overnight at 4° C., followed by incubation with appropriate fluorescence-conjugated secondary antibodies and mounted in Hydromount (National diagnostics). Images were taken with a Leica DMRA microscope. For 3,3-diaminobenzidine (DAB) staining, the sections were rehydrated and subjected to antigen retrieval. […]
Images from the same experiment were obtained using identical acquisition settings, and images were analyzed with Metamorph software (Meta Image Series 7.5, Universal Imaging Corp.)^24,58. For quantifying the EphA4 and PSD-95 clusters, two dendrite segments from each neuron were analyzed for quantification. […] The basal threshold values for the background of all images in each experiment were measured. […] To measure the density of clusters in dendrites, the images were first thresholded to include the clusters with intensity 2-fold greater than the signal of an adjacent dendrite, and the total number of clusters and dendrite length were measured automatically. […]

[3] = system: Aβ-induced reduction of neurotransmission in hippocampal neurons; assay: mEPSC recording in Aβ-treated cultured hippocampal neurons; type: cell-based, rat
Description: Primary cortical and hippocampal neurons were prepared from embryonic day 18-19 rat embryos as described previously^24. Briefly, cortical neurons (6×10^6 per plate) were plated on 100-mm culture dishes coated with poly-D-lysine (12.5 μg/mL; Sigma). Rat hippocampal neurons were seeded on 18-mm coverslips coated with poly-D-lysine (50 μg/mL) at a density of 0.5×10^5/18-mm coverslip for immunocytochemical analysis, 0.1×10^5/18-mm coverslip for growth cone collapse assay, or 1×10^5 or 1.5×10^5/18-mm coverslip for mEPSC recording. Neurons were fed Neurobasal medium (Invitrogen) supplemented with 2% B27 (Invitrogen). Acute brain slices were prepared from P15-P17 Sprague-Dawley rats. Briefly, the rats were rapidly decapitated, and their brains were immersed in ice-cold artificial cerebrospinal fluid (ACSF). The hippocampus was dissected, and 300-μm-thick slices were prepared using a vibratome (Lieca). The slices were then transferred into an incubating chamber containing circulating ACSF equilibrated with 95% O2+5% CO2 and held at room temperature for at least 2 h for recovery prior to experiments^65.
For miniature EPSC recordings, hippocampal neurons at ˜25-28 DIV were co-treated with or without 500 nM Aβ together with the testing reagents for 24 h. Whole-cell patch-clamp recordings were made at room temperature with external solution containing (in mM) 110 NaCl, 5 KCl, 2 CaCl2, 0.8 MgCl2, 10 HEPES, and 10 D-glucose (pH 7.4) as well as an internal solution containing (in mM) 135 CsCl2, 10 HEPES, 2 MgCl2, 4 NaATP, 0.4 NaGTP, and 0.5 EGTA (pH 7.2)^24,27. Picrotoxin ([…]) was included in the external solution to block GABAergic IPSCs along with 0.5 μM TTX to prevent action potential-evoked EPSCs. For miniature EPSC recordings, cells were held at −70 mV. The pipette resistances for these experiments were typically 3-5 MΩ, while series resistances were 15-20 MΩ. The minis from each cell was recorded for 1 min in each condition. The measurement of mEPSC was according to that described in Mini Analysis Program for measuring AMPA receptor EPSCs (Synaptosoft Inc.). Only recording epochs in which series and input resistances varied <10% were analyzed. Data are presented as the mean±SEM of at least 3 experiments.

[4] = biological target: T1, extracellular domain of EphB2 (Homo sapiens, UniProt P29323); assay: In vitro pull-down of recombinant EphB2-Fc with biotinylated Rhy on streptavidin beads; type: binding; settings: western blot
T1 construct: purchased R&D Systems
T1 sequence (P29323 19-543 limits assumed): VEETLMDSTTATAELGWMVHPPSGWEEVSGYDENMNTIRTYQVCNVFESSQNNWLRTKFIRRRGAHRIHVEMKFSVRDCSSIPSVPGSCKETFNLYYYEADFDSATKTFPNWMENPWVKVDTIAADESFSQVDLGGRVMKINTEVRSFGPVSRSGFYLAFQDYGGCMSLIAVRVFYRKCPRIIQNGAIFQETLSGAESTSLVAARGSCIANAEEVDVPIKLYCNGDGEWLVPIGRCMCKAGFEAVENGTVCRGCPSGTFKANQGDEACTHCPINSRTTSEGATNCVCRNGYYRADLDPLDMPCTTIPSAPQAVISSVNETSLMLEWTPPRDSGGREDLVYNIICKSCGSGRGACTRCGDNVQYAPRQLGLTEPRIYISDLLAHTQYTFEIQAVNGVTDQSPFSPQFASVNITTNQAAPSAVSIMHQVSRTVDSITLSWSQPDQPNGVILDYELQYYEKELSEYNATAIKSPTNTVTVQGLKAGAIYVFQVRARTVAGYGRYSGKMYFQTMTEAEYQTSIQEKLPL
Description: For the pull-down analysis, Bio-Rhy was bound to streptavidin magnetic beads for 1 h, the beads was then incubated with recombinant EphA4-Fc or EphB2-Fc in the presence of 0.5% BSA for 1 h. After incubation, the beads were washed 4 times with DPBS and the presence of Eph in the complex was determined by western blot analysis.

CC[C@H]1CN2CC[C@]3(C(=O)Nc4ccccc43)[C@@H]2C[C@@H]1/C(=C\OC)C(=O)OC [Rhy, methyl (7β,16E,20α)-16-(methoxymethylene)-2-oxocorynoxan-17-oate]
number of Ki-67+ neural progenitors in dentate gyrus (APP/PS1 mice [1]): increased the number of Ki-67+ neural progenitors | amyloid plaques in cortex and hippocampus (APP/PS1 mice [2]; APP/PS1 mice, 10-week administration of Rhy versus water): number and total area of amyloid plaques decreased significantly | plaque-associated reactive microglia, Iba1 staining (APP/PS1 mice [2]; cortex of APP/PS1 mice administered with Rhy): significant reduction of plaque-associated reactive microglia | mEPSC inter-event interval ([3]; Rhy 10 μM + Aβ, Aβ alone 897.4±43.4 ms): 420.6 ± 9.6 ms | mEPSC inter-event interval ([3]; Rhy 10 μM alone, control 312.9±7.8 ms): 512.2 ± 13.6 ms | binding to the extracellular domain of EphB2 (pull-down, words) [4]: not that of EphB2
